Data published in patent US20210346459A1, “Application of Dalargin for the prevention of VRIs and prevention of the development of complications during VRIs” (priority 2020, published 2021).
Values after ≈ are worked out from the molar mass of the structure shown. Where two headings read alike, the source gives them in different places. Marks after values point to notes of the source that are not given here.

Columns and labels:
human adenovirus 5 [1] = experiment: organism not typed; conditions: Vero
human adenovirus 5 [2] = system: human adenovirus 5
in vitro = conditions: African green monkey
[3] = system: influenza virus A/California/04/2009; assay type: in vivo, mice
MDCK = experiment: 50% cytotoxic concentration, cell line used for influenza virus; conditions: PR8 (influenza virus) section
[4] = system: influenza virus A/Puerto Rico/8/34 (H1N1)
[5] = system: influenza virus A/Puerto Rico/8/34 (H1N1); assay type: in vivo, Balb/c mice; conditions: Group 2: Tamiflu 20 mg/kg once a day intragastrically
mu receptors = mu receptors (Homo sapiens, UniProt P35372); conditions: metabolite of Dalargin; cited from earlier work
[6] = Group 3: Arbidol 130 mg/kg intragastrically once a day, therapeutic
[7] = Group 3: Arbidol 130 mg/kg intragastrically once a day, therapeutic, 30 animals
[8] = Group 2: Ingavirin 15 mg/kg intragastrically once a day, therapeutic
[9] = Group 2: Ingavirin 15 mg/kg intragastrically once a day, therapeutic, 30 animals

mu receptors, sequence (P35372 whole entry): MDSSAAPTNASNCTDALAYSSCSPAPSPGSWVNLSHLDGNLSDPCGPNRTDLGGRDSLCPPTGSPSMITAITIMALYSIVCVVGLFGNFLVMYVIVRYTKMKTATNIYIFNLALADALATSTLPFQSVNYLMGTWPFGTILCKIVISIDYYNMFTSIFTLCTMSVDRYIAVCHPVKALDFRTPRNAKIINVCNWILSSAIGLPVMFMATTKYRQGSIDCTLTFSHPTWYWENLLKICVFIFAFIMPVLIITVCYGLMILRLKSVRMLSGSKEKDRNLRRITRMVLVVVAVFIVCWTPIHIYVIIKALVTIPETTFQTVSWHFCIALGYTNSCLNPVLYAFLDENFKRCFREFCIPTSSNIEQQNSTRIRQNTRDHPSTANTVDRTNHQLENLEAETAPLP

**Q.** Which IC50 (human adenovirus 5 [1]) does the source give for `Nc1nc2c(ncn2COCCO)c(=O)[nH]1` [Aciclovir] here?
**A.** Its IC50 is greater than 30 µg/mL.

**Q.** And the SI (human adenovirus 5 [2]; CC50/IC50, Ad5 (adenovirus))?
**A.** The SI was 1.

**Q.** What about the “Antiviral properties (in words)” value (human adenovirus 5 [2]; adenovirus, Vero) of the same compound?
**A.** Its value is “did not exhibit antiviral properties”.

**Q.** What about the CC50 (in vitro) of the same compound?
**A.** The CC50 was greater than 30 µg/mL.

**Q.** Which “Mortality, %” value [3, 6] does the source give for `CCOC(=O)c1c(CSc2ccccc2)n(C)c2cc(Br)c(O)c(CN(C)C)c12` [Arbidol] here?
**A.** Its value is 70.00%.

**Q.** And the “Protective index, %” value [3, 6]?
**A.** The value was 27.59%.

**Q.** What about the “Mortality by day 5” value [3, 7] of the same compound?
**A.** Its value is 2.

**Q.** And the “Mortality by day 6” value [3, 7]?
**A.** The value was 2.

**Q.** What about the “Mortality by day 7” value [3, 7] of the same compound?
**A.** Its value is 7.

**Q.** What about the “Mortality by day 8” value [3, 7] of the same compound?
**A.** Its value is 5.

**Q.** What about the “Mortality by day 9” value [3, 7] of the same compound?
**A.** Its value is 3.

**Q.** And the “Mortality by day 10” value [3, 7]?
**A.** The value was 2.

**Q.** What about the Residue [3, 7] of the same compound?
**A.** The Residue was 9.

**Q.** With `O=C(O)CCCC(=O)NCCc1c[nH]cn1` [Ingavirin] as the compound, how does the “Mortality, %” value [3, 8] read?
**A.** The value was 53.33%.

**Q.** What about the “Protective index, %” value [3, 8] of the same compound?
**A.** The value was 44.83%.

**Q.** And the “Mortality by day 6” value [3, 9]?
**A.** Its value is 4.

**Q.** And the “Mortality by day 7” value [3, 9]?
**A.** Its value is 6.

**Q.** What about the “Mortality by day 8” value [3, 9] of the same compound?
**A.** The value was 3.

**Q.** What about the “Mortality by day 9” value [3, 9] of the same compound?
**A.** Its value is 2.

**Q.** What about the “Mortality by day 10” value [3, 9] of the same compound?
**A.** The value was 1.

**Q.** What about the Residue [3, 9] of the same compound?
**A.** Its Residue is 14.

**Q.** And the “Mortality by day 5” value ([3]; mouse, in vivo)?
**A.** The value was 3.

**Q.** And the “Mortality by day 6” value ([3]; mouse, in vivo)?
**A.** The value was 4.

**Q.** And the “Mortality by day 7” value ([3]; mouse, in vivo)?
**A.** Its value is 4.

**Q.** And the “Mortality by day 8” value ([3]; mouse, in vivo)?
**A.** The value was 7.

**Q.** And the “Mortality by day 9” value ([3]; mouse, in vivo)?
**A.** The value was 4.

**Q.** And the “Mortality by day 10” value ([3]; mouse, in vivo)?
**A.** Its value is 2.

**Q.** And the “Mortality, %” value ([3]; mouse, in vivo)?
**A.** The value was 80.00%.

**Q.** And the “Protective index, %” value ([3]; mouse, in vivo)?
**A.** The value was 17.24%.

**Q.** And the Residue ([3]; mouse, in vivo)?
**A.** Its Residue is 6.

**Q.** Which results are given for `CC(N)C12CC3CC(CC(C3)C1)C2` (stereo not shown) [Remantadin]?
**A.** CC50 (MDCK): 64 µg/mL (≈ 357 µM); SI ([4]; CC50/IC50, PR8 (influenza virus)): 5; IC50 ([4]; PR8 (influenza virus), MDCK): 11 µg/mL (≈ 61.3 µM); Antiviral properties (in words) ([4]; influenza virus, MDCK): did not exhibit antiviral properties

**Q.** Which “Mortality, %” value [5] does the source give for `CCOC(=O)C1=C[C@@H](OC(CC)CC)[C@H](NC(C)=O)[C@@H](N)C1` [Tamiflu, oseltamivir] here?
**A.** The value was 10.00%.

**Q.** What about the “Protective index, %” value [5] of the same compound?
**A.** Its value is 88.46%.

**Q.** What about the “Mortality by day 9” value ([5]; 30 animals) of the same compound?
**A.** Its value is 2.

**Q.** What about the “Mortality by day 10” value ([5]; 30 animals) of the same compound?
**A.** Its value is 1.

**Q.** And the Residue ([5]; 30 animals)?
**A.** The Residue was 27*.

**Q.** Which “Affinity to mu receptors” value (mu receptors) does the source give for Tyr-D-Ala-Gly-Phe here?
**A.** Its value is “exhibits affinity to mu receptors”.
